From ChEMBL document CHEMBL4732075, “PROTACs suppression of GSK-3β, a crucial kinase in neurodegenerative diseases” (Eur J Med Chem, 2021)
The source made the active and inactive calls. The rule behind the calls is not given here.

How the values were obtained:
[1] = biological target: T1, Glycogen synthase kinase-3 beta (Homo sapiens, UniProt P49841); experiment: Inhibition of N-terminal His6-tagged recombinant human GSK3beta H350L mutant expressed in baculovirus infected Sf21 cells using GSM as substrate incubated for 30 mins in presence of ATP by Kinase-Glo luminescent assay
Target sequence in this assay (P49841 whole entry): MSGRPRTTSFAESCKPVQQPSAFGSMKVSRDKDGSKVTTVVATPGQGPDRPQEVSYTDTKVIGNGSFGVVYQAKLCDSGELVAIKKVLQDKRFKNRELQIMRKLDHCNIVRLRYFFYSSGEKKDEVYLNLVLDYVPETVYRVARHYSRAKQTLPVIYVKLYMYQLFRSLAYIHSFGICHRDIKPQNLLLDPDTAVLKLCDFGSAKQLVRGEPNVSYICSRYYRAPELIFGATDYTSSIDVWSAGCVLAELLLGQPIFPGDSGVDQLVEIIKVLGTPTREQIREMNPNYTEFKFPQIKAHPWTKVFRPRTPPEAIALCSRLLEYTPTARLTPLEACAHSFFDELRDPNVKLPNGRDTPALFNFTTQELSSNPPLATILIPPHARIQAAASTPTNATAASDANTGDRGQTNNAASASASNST

[2] = biological target: T2, Protein cereblon/Glycogen synthase kinase-3 beta (Rattus norvegicus) (UniProt P18266+Q56AP7); experiment: Protac activity at CRBN/GSK3beta in rat PC12 cells assessed as GSK3beta degradation by measuring GSK3beta protein level at 10 uM after 10 hrs by Western blotting analysis; type: cell-based; conditions: PC-12
T2 sequence (P18266 whole entry, looked up): as the sequence (P49841 whole entry) above, with V240M, T390P, T392A, A400T, T402A counted along it
T2 sequence (Q56AP7 whole entry, looked up): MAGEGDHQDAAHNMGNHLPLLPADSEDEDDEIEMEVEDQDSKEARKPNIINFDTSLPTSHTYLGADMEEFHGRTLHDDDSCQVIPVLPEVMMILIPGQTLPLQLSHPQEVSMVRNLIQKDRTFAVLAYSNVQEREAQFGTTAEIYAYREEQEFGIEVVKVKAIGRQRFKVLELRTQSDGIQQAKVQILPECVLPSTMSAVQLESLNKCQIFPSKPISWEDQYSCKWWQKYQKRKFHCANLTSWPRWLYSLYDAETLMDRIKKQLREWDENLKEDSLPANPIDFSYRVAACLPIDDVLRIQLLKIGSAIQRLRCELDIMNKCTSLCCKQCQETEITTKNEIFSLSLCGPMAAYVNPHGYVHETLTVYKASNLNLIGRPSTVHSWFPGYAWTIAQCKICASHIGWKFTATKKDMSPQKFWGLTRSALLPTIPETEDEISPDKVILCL

[3] = biological target: Dual specificity tyrosine-phosphorylation-regulated kinase 1B (Homo sapiens) (UniProt Q9Y463); experiment: Inhibition of DYRK1beta (unknown origin) at 300 nM relative to control
Chain of Dual specificity tyrosine-phosphorylation-regulated kinase 1B (Homo sapiens) (Q9Y463 whole entry, looked up): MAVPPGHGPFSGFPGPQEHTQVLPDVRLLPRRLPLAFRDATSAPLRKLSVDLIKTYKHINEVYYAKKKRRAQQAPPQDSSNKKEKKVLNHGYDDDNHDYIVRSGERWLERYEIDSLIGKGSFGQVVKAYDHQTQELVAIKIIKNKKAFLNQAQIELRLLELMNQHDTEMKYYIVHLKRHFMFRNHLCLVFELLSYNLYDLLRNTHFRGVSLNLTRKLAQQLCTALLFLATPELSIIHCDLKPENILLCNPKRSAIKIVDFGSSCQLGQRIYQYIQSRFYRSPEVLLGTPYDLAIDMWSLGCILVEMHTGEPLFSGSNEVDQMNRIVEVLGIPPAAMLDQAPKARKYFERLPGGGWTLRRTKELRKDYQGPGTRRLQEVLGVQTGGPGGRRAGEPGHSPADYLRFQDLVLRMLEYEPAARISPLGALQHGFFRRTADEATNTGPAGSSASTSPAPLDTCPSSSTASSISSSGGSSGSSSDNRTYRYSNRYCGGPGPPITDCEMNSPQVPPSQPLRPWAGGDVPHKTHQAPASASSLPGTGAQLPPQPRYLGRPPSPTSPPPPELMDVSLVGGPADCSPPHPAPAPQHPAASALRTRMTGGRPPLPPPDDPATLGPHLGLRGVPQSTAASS

[4] = biological target: T2, Protein cereblon/Glycogen synthase kinase-3 beta (Rattus norvegicus); experiment: Protac activity at CRBN/GSK3beta in rat PC12 cells assessed as GSK3beta degradation by measuring GSK3beta protein level at […] preincubated for 2 hrs with GSK3beta inhibitor, G1 followed by compound addition and measured after 8 hrs by Western blotting analysis (reference value: 100 %); type: cell-based; set-up: scale not given: the % may be the effect or the level left; conditions: PC-12, dose 8.3 µM
[5] = biological target: Mitogen-activated protein kinase 3 (Homo sapiens) (UniProt P27361); experiment: Inhibition of ERK1 (unknown origin) at 300 nM relative to control
Chain of Mitogen-activated protein kinase 3 (Homo sapiens) (P27361 whole entry): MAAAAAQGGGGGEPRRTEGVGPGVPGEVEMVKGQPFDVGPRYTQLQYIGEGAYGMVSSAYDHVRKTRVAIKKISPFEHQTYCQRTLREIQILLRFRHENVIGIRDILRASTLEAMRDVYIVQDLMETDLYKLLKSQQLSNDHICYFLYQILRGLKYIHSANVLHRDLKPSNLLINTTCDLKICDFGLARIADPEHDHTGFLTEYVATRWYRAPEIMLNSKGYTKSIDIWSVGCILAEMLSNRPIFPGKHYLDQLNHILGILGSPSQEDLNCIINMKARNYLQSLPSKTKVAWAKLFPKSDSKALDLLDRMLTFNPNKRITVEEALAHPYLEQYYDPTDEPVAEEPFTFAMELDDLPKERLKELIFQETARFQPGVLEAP

[6] = biological target: T3, Mitogen-activated protein kinase 13 (Homo sapiens) (UniProt O15264); experiment: Inhibition of p38delta (unknown origin) at 300 nM relative to control
T3 sequence (whole entry): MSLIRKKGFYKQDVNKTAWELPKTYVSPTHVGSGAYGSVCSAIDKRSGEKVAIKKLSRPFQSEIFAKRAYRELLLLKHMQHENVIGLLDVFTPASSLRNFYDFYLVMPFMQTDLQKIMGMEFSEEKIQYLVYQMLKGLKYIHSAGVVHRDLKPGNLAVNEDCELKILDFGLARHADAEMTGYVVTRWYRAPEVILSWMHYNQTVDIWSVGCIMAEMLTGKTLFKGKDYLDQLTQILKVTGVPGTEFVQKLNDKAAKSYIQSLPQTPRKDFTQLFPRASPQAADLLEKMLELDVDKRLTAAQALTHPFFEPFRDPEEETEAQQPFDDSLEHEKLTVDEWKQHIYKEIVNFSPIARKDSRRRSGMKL

[7] = biological target: Cyclin-dependent kinase 7 (Homo sapiens) (UniProt P50613); experiment: Inhibition of CDK7 (unknown origin) at 300 nM relative to control
Chain of Cyclin-dependent kinase 7 (Homo sapiens) (P50613 whole entry): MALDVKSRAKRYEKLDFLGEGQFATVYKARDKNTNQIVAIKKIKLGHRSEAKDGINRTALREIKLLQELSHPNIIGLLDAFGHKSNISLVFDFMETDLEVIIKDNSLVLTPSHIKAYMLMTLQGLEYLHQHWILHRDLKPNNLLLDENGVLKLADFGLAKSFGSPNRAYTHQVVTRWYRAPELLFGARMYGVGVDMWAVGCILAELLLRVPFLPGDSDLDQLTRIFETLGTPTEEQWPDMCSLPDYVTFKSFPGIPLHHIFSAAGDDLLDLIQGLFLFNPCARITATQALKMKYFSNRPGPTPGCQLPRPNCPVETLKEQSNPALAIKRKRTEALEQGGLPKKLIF

[8] = biological target: Dual specificity tyrosine-phosphorylation-regulated kinase 1A (Homo sapiens) (UniProt Q13627); experiment: Inhibition of DYRK1alpha (unknown origin) at 300 nM relative to control
BV-2 = experiment: Anti-neuroinflammatory activity in mouse BV2 cells assessed as reduction in LPS-induced TNFalpha production at 5 uM pretreated for 5 hrs followed by LPS challenge and measured after 24 hrs by immunofluorescence confocal microscopic analysis; type: functional, cell-based; conditions: time 29.0 hrs
[9] = biological target: T2, Protein cereblon/Glycogen synthase kinase-3 beta (Rattus norvegicus); experiment: Protac activity at CRBN/GSK3beta in rat PC12 cells assessed as GSK3beta degradation by measuring GSK3beta protein level at […] preincubated for 2 hrs with proteasome inhibitor, MG132 followed by compound addition and measured after 8 hrs by Western blotting analysis (reference value: 100 %); type: cell-based; set-up: scale not given: the % may be the effect or the level left; conditions: PC-12, dose 8.3 µM
[10] = biological target: T2, Protein cereblon/Glycogen synthase kinase-3 beta (Rattus norvegicus); experiment: Protac activity at CRBN/GSK3beta in rat PC12 cells assessed as GSK3beta degradation by measuring GSK3beta protein level at […] preincubated for 2 hrs with […] ligand, pomalidomide followed by compound addition and measured after 8 hrs by Western blotting analysis (reference value: 100 %); type: cell-based; conditions: PC-12, dose 8.3 µM
[11] = biological target: Cyclin-dependent kinase 1 (Homo sapiens) (UniProt P06493); experiment: Inhibition of CDK1 (unknown origin) at 300 nM relative to control
[12] = biological target: T2, Protein cereblon/Glycogen synthase kinase-3 beta (Rattus norvegicus); experiment: Protac activity at CRBN/GSK3beta in rat PC12 cells assessed as GSK3beta degradation by measuring GSK3beta protein level at 2.8 uM after 10 hrs by Western blotting analysis (reference value: 100 %); type: cell-based; conditions: PC-12
[13] = biological target: Mitogen-activated protein kinase 9 (Homo sapiens) (UniProt P45984); experiment: Inhibition of JNK2 (unknown origin) at 300 nM relative to control
Chain of Mitogen-activated protein kinase 9 (Homo sapiens) (P45984 whole entry, looked up): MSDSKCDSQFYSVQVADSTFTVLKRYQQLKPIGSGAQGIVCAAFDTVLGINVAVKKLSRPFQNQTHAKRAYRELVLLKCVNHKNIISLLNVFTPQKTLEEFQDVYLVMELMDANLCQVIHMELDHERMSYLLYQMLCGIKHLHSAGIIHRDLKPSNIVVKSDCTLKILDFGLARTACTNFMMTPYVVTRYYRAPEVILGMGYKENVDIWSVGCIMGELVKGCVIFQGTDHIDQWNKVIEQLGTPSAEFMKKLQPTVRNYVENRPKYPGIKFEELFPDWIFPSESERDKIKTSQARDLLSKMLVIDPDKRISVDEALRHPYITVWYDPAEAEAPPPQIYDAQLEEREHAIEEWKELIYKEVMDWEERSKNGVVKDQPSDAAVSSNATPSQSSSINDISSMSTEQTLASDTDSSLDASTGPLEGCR

[14] = biological target: Mitogen-activated protein kinase 14 (Homo sapiens) (UniProt Q16539); experiment: Inhibition of p38alpha (unknown origin) at 300 nM relative to control
[15] = biological target: T2, Protein cereblon/Glycogen synthase kinase-3 beta (Rattus norvegicus); experiment: Protac activity at CRBN/GSK3beta in rat PC12 cells assessed as GSK3beta degradation by measuring GSK3beta protein level at 25 uM after 10 hrs by Western blotting analysis (reference value: 100 %); type: cell-based; conditions: PC-12
[16] = biological target: T2, Protein cereblon/Glycogen synthase kinase-3 beta (Rattus norvegicus); experiment: Protac activity at CRBN/GSK3beta in rat PC12 cells assessed as GSK3beta degradation by measuring reduction in GSK3beta protein level after 10 hrs by Western blotting analysis; type: cell-based; conditions: PC-12, dose 2.8-25 µM
[17] = biological target: T2, Protein cereblon/Glycogen synthase kinase-3 beta (Rattus norvegicus); experiment: Protac activity at CRBN/GSK3beta in rat PC12 cells assessed as GSK3beta degradation by measuring GSK3beta protein level at […] after 10 hrs by Western blotting analysis (reference value: 100 %); type: cell-based; conditions: PC-12, dose 8.3 µM
[18] = biological target: Mitogen-activated protein kinase 10 (Homo sapiens) (UniProt P53779); experiment: Inhibition of JNK3 (unknown origin) at 300 nM relative to control
Chain of Mitogen-activated protein kinase 10 (Homo sapiens) (P53779 whole entry): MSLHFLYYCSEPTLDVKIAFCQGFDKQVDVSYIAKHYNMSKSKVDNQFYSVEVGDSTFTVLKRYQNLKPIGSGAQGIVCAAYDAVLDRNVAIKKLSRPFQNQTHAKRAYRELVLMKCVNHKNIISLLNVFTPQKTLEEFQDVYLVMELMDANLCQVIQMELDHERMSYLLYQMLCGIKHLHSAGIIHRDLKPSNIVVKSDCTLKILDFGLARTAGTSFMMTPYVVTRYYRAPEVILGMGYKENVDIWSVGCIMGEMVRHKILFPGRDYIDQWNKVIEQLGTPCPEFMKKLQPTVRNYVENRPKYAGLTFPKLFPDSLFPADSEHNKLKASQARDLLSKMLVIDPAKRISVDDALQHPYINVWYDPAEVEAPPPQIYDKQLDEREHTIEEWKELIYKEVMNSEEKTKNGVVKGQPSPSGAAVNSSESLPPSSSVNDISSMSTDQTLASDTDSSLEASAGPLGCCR

[19] = biological target: Mitogen-activated protein kinase 11 (Homo sapiens) (UniProt Q15759); experiment: Inhibition of p38beta (unknown origin) at 300 nM relative to control
Chain of Mitogen-activated protein kinase 11 (Homo sapiens) (Q15759 whole entry): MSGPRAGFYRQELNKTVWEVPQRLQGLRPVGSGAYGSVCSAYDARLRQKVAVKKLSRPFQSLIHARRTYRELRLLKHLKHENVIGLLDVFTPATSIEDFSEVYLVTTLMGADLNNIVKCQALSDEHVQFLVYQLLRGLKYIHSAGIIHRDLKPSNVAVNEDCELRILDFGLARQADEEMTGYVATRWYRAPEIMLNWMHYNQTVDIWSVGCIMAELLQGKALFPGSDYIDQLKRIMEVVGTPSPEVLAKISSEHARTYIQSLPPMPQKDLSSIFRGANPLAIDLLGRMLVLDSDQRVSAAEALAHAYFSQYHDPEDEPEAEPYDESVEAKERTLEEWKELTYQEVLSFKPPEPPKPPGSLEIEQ

[20] = biological target: T1, Glycogen synthase kinase-3 beta; experiment: Inhibition of GSK3beta (unknown origin) at 300 nM relative to control
Target sequence in this assay (P49841 whole entry, looked up): as the sequence (P49841 whole entry) above

[21] = biological target: Glycogen synthase kinase-3 alpha (Homo sapiens) (UniProt P49840); experiment: Inhibition of GSK3alpha (unknown origin) at 300 nM relative to control
Chain of Glycogen synthase kinase-3 alpha (Homo sapiens) (P49840 2-483 limits assumed): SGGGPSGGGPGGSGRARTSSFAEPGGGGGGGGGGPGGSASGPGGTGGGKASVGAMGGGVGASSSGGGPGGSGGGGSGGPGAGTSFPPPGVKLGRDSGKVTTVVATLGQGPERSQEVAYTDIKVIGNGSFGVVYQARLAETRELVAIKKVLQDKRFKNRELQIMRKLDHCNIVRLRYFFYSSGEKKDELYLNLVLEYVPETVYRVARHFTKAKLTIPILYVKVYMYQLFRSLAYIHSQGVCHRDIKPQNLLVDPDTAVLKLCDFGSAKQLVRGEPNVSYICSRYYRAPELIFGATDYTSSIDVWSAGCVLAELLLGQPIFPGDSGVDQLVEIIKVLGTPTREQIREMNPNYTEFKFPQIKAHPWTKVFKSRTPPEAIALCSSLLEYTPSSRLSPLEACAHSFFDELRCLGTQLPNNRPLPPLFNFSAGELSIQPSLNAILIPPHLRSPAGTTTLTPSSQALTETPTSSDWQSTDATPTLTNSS

[22] = biological target: Cyclin-dependent kinase 4 (Homo sapiens) (UniProt P11802); experiment: Inhibition of CDK4 (unknown origin) at 300 nM relative to control
Chain of Cyclin-dependent kinase 4 (Homo sapiens) (P11802 whole entry): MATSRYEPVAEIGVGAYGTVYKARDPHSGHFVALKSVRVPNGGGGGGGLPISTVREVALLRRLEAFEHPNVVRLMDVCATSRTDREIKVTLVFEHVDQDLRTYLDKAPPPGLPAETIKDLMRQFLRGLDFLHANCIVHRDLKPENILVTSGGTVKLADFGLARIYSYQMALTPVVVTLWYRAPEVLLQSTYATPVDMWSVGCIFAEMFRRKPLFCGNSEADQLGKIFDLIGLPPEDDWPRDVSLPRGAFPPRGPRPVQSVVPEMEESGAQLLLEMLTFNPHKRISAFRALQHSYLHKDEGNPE

[23] = biological target: Mitogen-activated protein kinase 1 (Homo sapiens) (UniProt P28482); experiment: Inhibition of ERK2 (unknown origin) at 300 nM relative to control
Chain of Mitogen-activated protein kinase 1 (Homo sapiens) (P28482 whole entry): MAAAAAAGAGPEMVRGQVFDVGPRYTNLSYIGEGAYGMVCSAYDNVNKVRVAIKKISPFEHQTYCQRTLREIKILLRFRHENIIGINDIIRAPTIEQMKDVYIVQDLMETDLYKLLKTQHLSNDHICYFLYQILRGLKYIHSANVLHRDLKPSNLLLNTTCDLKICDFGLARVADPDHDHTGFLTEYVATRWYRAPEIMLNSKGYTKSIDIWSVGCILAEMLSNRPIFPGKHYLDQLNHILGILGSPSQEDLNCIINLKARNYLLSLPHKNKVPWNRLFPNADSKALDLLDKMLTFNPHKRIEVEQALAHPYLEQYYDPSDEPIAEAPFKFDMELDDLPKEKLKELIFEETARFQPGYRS

HT-22 = experiment: Neuroprotective activity against glutamate-induced cell death in mouse HT22 cells at 5 uM preincubated for 10 hrs followed by glutamate challenge and measured after 24 hrs by fluorescence inverted microscopic analysis; type: functional, cell-based
[24] = biological target: Cyclin-dependent kinase 9 (Homo sapiens) (UniProt P50750); experiment: Inhibition of CDK9 (unknown origin) at 300 nM relative to control
[25] = biological target: T2, Protein cereblon/Glycogen synthase kinase-3 beta (Rattus norvegicus); experiment: Protac activity at CRBN/GSK3beta in rat PC12 cells assessed as GSK3beta degradation by measuring GSK3beta protein level at 20 uM after 10 hrs by Western blotting analysis (reference value: 100 %); type: cell-based; conditions: PC-12

NC(=O)c1sc(-c2ccnc(NC(=O)C3CC3)c2)nc1OCCC#Cc1ccc2c(c1)C(=O)N(C1CCC(=O)NC1=O)C2=O (centres undefined)
IC50 [1]: > 1000 nM

Nc1cccc2c1C(=O)N(C1CCC(=O)NC1=O)C2=O (centres undefined)
GSK3beta protein level remaining [2]: 109%

CNC(=O)c1sc(-c2ccnc(NC(=O)C3CC3)c2)nc1OCCOCC#Cc1cccc2c1CN(C1CCC(=O)NC1=O)C2=O (centres undefined)
GSK3beta protein level remaining [2]: 89.7%
IC50 [1]: 49.2 nM

CNC(=O)c1sc(-c2ccnc(NC(=O)C3CC3)c2)nc1OCCCC#Cc1cccc2c1CN(C1CCC(=O)NC1=O)C2=O (centres undefined)
GSK3beta protein level remaining [2]: 85.1%
IC50 [1]: 295 nM

COc1nc(-c2ccnc(NC(=O)C3CC3)c2)sc1C(=O)NCCCCNC(=O)COc1cccc2c1C(=O)N(C1CCC(=O)NC1=O)C2=O (centres undefined)
IC50 [1]: 639 nM

CNC(=O)c1sc(-c2ccnc(NC(=O)C3CC3)c2)nc1OCCCCCCCCOc1cccc2c1C(=O)N(C1CCC(=O)NC1=O)C2=O (centres undefined)
GSK3beta protein level remaining [2]: 95.6%
IC50 [1]: 23.8 nM

CNC(=O)c1sc(-c2ccnc(NC(=O)C3CC3)c2)nc1OCCCCCCCCn1cc(COc2cccc3c2C(=O)N(C2CCC(=O)NC2=O)C3=O)nn1 (centres undefined)
inhibition [3]: 19.6%
Activity [4]: 102%
inhibition [5]: 6.79%
inhibition [6]: 18.4%
inhibition [7]: 3.65%
inhibition [8]: 40.4%
Activity (BV-2): Active
Activity [9]: 96.6%
Activity [10]: 109%
inhibition [11]: 4.01%
Activity [12]: 55.8%
GSK3beta protein level remaining [2]: 25.2%
inhibition [13]: 1.78%
inhibition [14]: 5.63%
Activity [15]: 16.7%
Activity [16]: Dose-dependent effect
Activity [17]: 36.5%
inhibition [18]: 13.8%
inhibition [19]: 6.94%
inhibition [20]: 81.5%
inhibition [21]: 88.9%
IC50 [1]: 83.1 nM
inhibition [22]: 4.09%
inhibition [23]: 5.84%
Activity (HT-22): Active
inhibition [24]: 3.27%

CNC(=O)c1sc(-c2ccnc(NC(=O)C3CC3)c2)nc1OCCOCCOCCn1cc(COc2cccc3c2C(=O)N(C2CCC(=O)NC2=O)C3=O)nn1 (centres undefined)
GSK3beta protein level remaining [2]: 62.7%
IC50 [1]: 46.9 nM

NC(=O)c1sc(-c2ccnc(NC(=O)C3CC3)c2)nc1O
GSK3beta protein level remaining [2]: 104%
Activity [25]: 111%

NC(=O)c1sc(-c2ccnc(NC(=O)C3CC3)c2)nc1OCCOCC#Cc1cccc2c1CN(C1CCC(=O)NC1=O)C2=O (centres undefined)
GSK3beta protein level remaining [2]: 86.9%
IC50 [1]: 63.8 nM

CNC(=O)c1sc(-c2ccnc(NC(=O)C3CC3)c2)nc1OCCOCCOCCOc1cccc2c1C(=O)N(C1CCC(=O)NC1=O)C2=O (centres undefined)
GSK3beta protein level remaining [2]: 92.8%
IC50 [1]: 105 nM

CNC(=O)c1sc(-c2ccnc(NC(=O)C3CC3)c2)nc1OCCCCCCOc1cccc2c1C(=O)N(C1CCC(=O)NC1=O)C2=O (centres undefined)
IC50 [1]: 71.6 nM
